# According to ChEMBL document CHEMBL1201861, “Genomics of Drug Sensitity in Cancer screening data, Wellcome Trust Sanger Institute”:
# Tested on: OC-314
# Experiment: cells
# Format: functional, cell-based, Homo sapiens
# Details: Homo sapiens, OC-314
# Description: SANGER: Inhibition of human OC-314 cell growth in a cell viability assay.
row,Structure (SMILES),IC50
1,Cc1cn(-c2cc(NC(=O)c3ccc(C)c(Nc4nccc(-c5cccnc5)n4)c3)cc(C(F)(F)F)c2)cn1 [NILOTINIB],> 2 µM

# Tested on: ABC-1;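 further: growth inhibition of human ABC-1 cells, read out by a cell viability assay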
# Experiment: cells
# Format: functional, cell-based, Homo sapiens
# Details: Homo sapiens, ABC-1
# Description: SANGER: Inhibition of human ABC-1 cell growth in a cell viability assay.
row,Structure (SMILES),IC50
1,Cc1cn(-c2cc(NC(=O)c3ccc(C)c(Nc4nccc(-c5cccnc5)n4)c3)cc(C(F)(F)F)c2)cn1 [NILOTINIB],> 2 µM

# Tested on: SW1783;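 further: cell growth inhibition measured with a viability assay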
# Experiment: cells
# Format: functional, cell-based, Homo sapiens
# Details: Homo sapiens, SW1783
# Description: SANGER: Inhibition of human SW1783 cell growth in a cell viability assay.
row,Structure (SMILES),IC50
1,Cc1cn(-c2cc(NC(=O)c3ccc(C)c(Nc4nccc(-c5cccnc5)n4)c3)cc(C(F)(F)F)c2)cn1 [NILOTINIB],> 2 µM

# Tested on: DBTRG-05MG;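 further: cell viability assay measuring growth inhibition of human DBTRG-05MG cells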
# Experiment: cells
# Format: functional, cell-based, Homo sapiens
# Details: Homo sapiens, DBTRG-05MG
# Description: SANGER: Inhibition of human DBTRG-05MG cell growth in a cell viability assay.
row,Structure (SMILES),IC50
1,Cc1cn(-c2cc(NC(=O)c3ccc(C)c(Nc4nccc(-c5cccnc5)n4)c3)cc(C(F)(F)F)c2)cn1 [NILOTINIB],> 2 µM

# Tested on: HTC-C3;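 further: inhibition of cell growth, read out with a cell viability assay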
# Experiment: cells
# Format: functional, cell-based, Homo sapiens
# Details: Homo sapiens, HTC-C3
# Description: SANGER: Inhibition of human HTC-C3 cell growth in a cell viability assay.
row,Structure (SMILES),IC50
1,Cc1cn(-c2cc(NC(=O)c3ccc(C)c(Nc4nccc(-c5cccnc5)n4)c3)cc(C(F)(F)F)c2)cn1 [NILOTINIB],> 2 µM

# Tested on: VMRC-RCZ;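 further: growth inhibition measured with a cell viability assay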
# Experiment: cells
# Format: functional, cell-based, Homo sapiens
# Details: Homo sapiens, VMRC-RCZ
# Description: SANGER: Inhibition of human VMRC-RCZ cell growth in a cell viability assay.
row,Structure (SMILES),IC50
1,Cc1cn(-c2cc(NC(=O)c3ccc(C)c(Nc4nccc(-c5cccnc5)n4)c3)cc(C(F)(F)F)c2)cn1 [NILOTINIB],> 2 µM

# Tested on: CHL-1;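 further: cell growth inhibition, read out with a cell viability assay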
# Experiment: cells
# Format: functional, cell-based, Homo sapiens
# Details: Homo sapiens, CHL-1
# Description: SANGER: Inhibition of human CHL-1 cell growth in a cell viability assay.
row,Structure (SMILES),IC50
1,Cc1cn(-c2cc(NC(=O)c3ccc(C)c(Nc4nccc(-c5cccnc5)n4)c3)cc(C(F)(F)F)c2)cn1 [NILOTINIB],> 2 µM

# Tested on: HT-1080
# Experiment: cells
# Format: functional, cell-based, Homo sapiens
# Details: Homo sapiens, HT-1080
# Description: SANGER: Inhibition of human HT-1080 cell growth in a cell viability assay.
row,Structure (SMILES),IC50
1,Cc1cn(-c2cc(NC(=O)c3ccc(C)c(Nc4nccc(-c5cccnc5)n4)c3)cc(C(F)(F)F)c2)cn1 [NILOTINIB],> 2 µM

# Tested on: HSC-3
# Experiment: cells
# Format: functional, cell-based, Homo sapiens
# Details: Homo sapiens, HSC-3
# Description: SANGER: Inhibition of human HSC-3 cell growth in a cell viability assay.
row,Structure (SMILES),IC50
1,Cc1cn(-c2cc(NC(=O)c3ccc(C)c(Nc4nccc(-c5cccnc5)n4)c3)cc(C(F)(F)F)c2)cn1 [NILOTINIB],> 2 µM

# Tested on: 786-0
# Experiment: cells
# Format: functional, cell-based, Homo sapiens
# Details: Homo sapiens
# Description: SANGER: Inhibition of human 786-0 cell growth in a cell viability assay.
row,Structure (SMILES),IC50
1,Cc1cn(-c2cc(NC(=O)c3ccc(C)c(Nc4nccc(-c5cccnc5)n4)c3)cc(C(F)(F)F)c2)cn1 [NILOTINIB],> 2 µM

# Tested on: HOS;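 further: growth inhibition of human HOS cells, read out with a cell viability assay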
# Experiment: cells
# Format: functional, cell-based, Homo sapiens
# Details: Homo sapiens, HOS
# Description: SANGER: Inhibition of human HOS cell growth in a cell viability assay.
row,Structure (SMILES),IC50
1,Cc1cn(-c2cc(NC(=O)c3ccc(C)c(Nc4nccc(-c5cccnc5)n4)c3)cc(C(F)(F)F)c2)cn1 [NILOTINIB],> 2 µM

# Tested on: PANC-08-13;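 further: cell growth inhibition, measured with a cell viability assay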
# Experiment: cells
# Format: functional, cell-based, Homo sapiens
# Details: Homo sapiens, PANC-08-13
# Description: SANGER: Inhibition of human PANC-08-13 cell growth in a cell viability assay.
row,Structure (SMILES),IC50
1,Cc1cn(-c2cc(NC(=O)c3ccc(C)c(Nc4nccc(-c5cccnc5)n4)c3)cc(C(F)(F)F)c2)cn1 [NILOTINIB],> 2 µM

# Tested on: RT-112
# Experiment: cells
# Format: functional, cell-based, Homo sapiens
# Details: Homo sapiens, RT-112
# Description: SANGER: Inhibition of human RT-112 cell growth in a cell viability assay.
row,Structure (SMILES),IC50
1,Cc1cn(-c2cc(NC(=O)c3ccc(C)c(Nc4nccc(-c5cccnc5)n4)c3)cc(C(F)(F)F)c2)cn1 [NILOTINIB],> 2 µM

# Tested on: BCPAP;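 further: growth inhibition of BCPAP cells, read out in a cell viability assay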
# Experiment: cells
# Format: functional, cell-based, Homo sapiens
# Details: Homo sapiens, BCPAP
# Description: SANGER: Inhibition of human BCPAP cell growth in a cell viability assay.
row,Structure (SMILES),IC50
1,Cc1cn(-c2cc(NC(=O)c3ccc(C)c(Nc4nccc(-c5cccnc5)n4)c3)cc(C(F)(F)F)c2)cn1 [NILOTINIB],> 2 µM

# Tested on: HuO9;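 further: growth inhibition of HuO9 cells, read out with a cell viability assay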
# Experiment: cells
# Format: functional, cell-based, Homo sapiens
# Details: Homo sapiens, HuO9
# Description: SANGER: Inhibition of human HuO9 cell growth in a cell viability assay.
row,Structure (SMILES),IC50
1,Cc1cn(-c2cc(NC(=O)c3ccc(C)c(Nc4nccc(-c5cccnc5)n4)c3)cc(C(F)(F)F)c2)cn1 [NILOTINIB],> 2 µM

# Tested on: MC-IXC;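 further: growth inhibition of MC-IXC cells, read out with a cell viability assay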
# Experiment: cells
# Format: functional, cell-based, Homo sapiens
# Details: Homo sapiens, MC-IXC
# Description: SANGER: Inhibition of human MC-IXC cell growth in a cell viability assay.
row,Structure (SMILES),IC50
1,Cc1cn(-c2cc(NC(=O)c3ccc(C)c(Nc4nccc(-c5cccnc5)n4)c3)cc(C(F)(F)F)c2)cn1 [NILOTINIB],> 2 µM

# Tested on: A2058;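 further: reduction of A2058 cell growth, read out with a viability assay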
# Experiment: cells
# Format: functional, cell-based, Homo sapiens
# Details: Homo sapiens, A2058
# Description: SANGER: Inhibition of human A2058 cell growth in a cell viability assay.
row,Structure (SMILES),IC50
1,Cc1cn(-c2cc(NC(=O)c3ccc(C)c(Nc4nccc(-c5cccnc5)n4)c3)cc(C(F)(F)F)c2)cn1 [NILOTINIB],> 2 µM

# Tested on: HCC38;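 further: cell viability assay on the human HCC38 cell line, with IC50 marking the concentration that inhibits cell growth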
# Experiment: cells
# Format: functional, cell-based, Homo sapiens
# Details: Homo sapiens, HCC38
# Description: SANGER: Inhibition of human HCC38 cell growth in a cell viability assay.
row,Structure (SMILES),IC50
1,Cc1cn(-c2cc(NC(=O)c3ccc(C)c(Nc4nccc(-c5cccnc5)n4)c3)cc(C(F)(F)F)c2)cn1 [NILOTINIB],> 2 µM

# Tested on: HT-3;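 further: growth inhibition measured with a cell viability readout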
# Experiment: cells
# Format: functional, cell-based, Homo sapiens
# Details: Homo sapiens, HT-3
# Description: SANGER: Inhibition of human HT-3 cell growth in a cell viability assay.
row,Structure (SMILES),IC50
1,Cc1cn(-c2cc(NC(=O)c3ccc(C)c(Nc4nccc(-c5cccnc5)n4)c3)cc(C(F)(F)F)c2)cn1 [NILOTINIB],> 2 µM

# Tested on: UACC-893
# Experiment: cells
# Format: functional, cell-based, Homo sapiens
# Details: Homo sapiens, UACC-893
# Description: SANGER: Inhibition of human UACC-893 cell growth in a cell viability assay.
row,Structure (SMILES),IC50
1,Cc1cn(-c2cc(NC(=O)c3ccc(C)c(Nc4nccc(-c5cccnc5)n4)c3)cc(C(F)(F)F)c2)cn1 [NILOTINIB],> 2 µM

# Tested on: AN3-CA;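 further: growth inhibition of human AN3-CA cells measured by a cell viability assay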
# Experiment: cells
# Format: functional, cell-based, Homo sapiens
# Details: Homo sapiens, AN3-CA
# Description: SANGER: Inhibition of human AN3-CA cell growth in a cell viability assay.
row,Structure (SMILES),IC50
1,Cc1cn(-c2cc(NC(=O)c3ccc(C)c(Nc4nccc(-c5cccnc5)n4)c3)cc(C(F)(F)F)c2)cn1 [NILOTINIB],> 2 µM

# Tested on: DOK;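 further: cell viability assay read-out, values reflect inhibition of cell growth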
# Experiment: cells
# Format: functional, cell-based, Homo sapiens
# Details: Homo sapiens, DOK
# Description: SANGER: Inhibition of human DOK cell growth in a cell viability assay.
row,Structure (SMILES),IC50
1,Cc1cn(-c2cc(NC(=O)c3ccc(C)c(Nc4nccc(-c5cccnc5)n4)c3)cc(C(F)(F)F)c2)cn1 [NILOTINIB],> 2 µM

# Tested on: A-431;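 further: growth inhibition of A-431 cells, determined with a cell viability read-out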
# Experiment: cells
# Format: functional, cell-based, Homo sapiens
# Details: Homo sapiens, A-431
# Description: SANGER: Inhibition of human A431 cell growth in a cell viability assay.
row,Structure (SMILES),IC50
1,Cc1cn(-c2cc(NC(=O)c3ccc(C)c(Nc4nccc(-c5cccnc5)n4)c3)cc(C(F)(F)F)c2)cn1 [NILOTINIB],> 2 µM

# Tested on: COLO-679
# Experiment: cells
# Format: functional, cell-based, Homo sapiens
# Details: Homo sapiens, COLO-679
# Description: SANGER: Inhibition of human COLO-679 cell growth in a cell viability assay.
row,Structure (SMILES),IC50
1,Cc1cn(-c2cc(NC(=O)c3ccc(C)c(Nc4nccc(-c5cccnc5)n4)c3)cc(C(F)(F)F)c2)cn1 [NILOTINIB],> 2 µM

# Tested on: C-33-A;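 further: cell viability assay measuring growth inhibition of C-33-A cells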
# Experiment: cells
# Format: functional, cell-based, Homo sapiens
# Details: Homo sapiens, C-33-A
# Description: SANGER: Inhibition of human C-33-A cell growth in a cell viability assay.
row,Structure (SMILES),IC50
1,Cc1cn(-c2cc(NC(=O)c3ccc(C)c(Nc4nccc(-c5cccnc5)n4)c3)cc(C(F)(F)F)c2)cn1 [NILOTINIB],> 2 µM

# Tested on: NCI-H292;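 further: growth inhibition of NCI-H292 cells, read out with a cell viability assay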
# Experiment: cells
# Format: functional, cell-based, Homo sapiens
# Details: Homo sapiens, NCI-H292
# Description: SANGER: Inhibition of human NCI-H292 cell growth in a cell viability assay.
row,Structure (SMILES),IC50
1,Cc1cn(-c2cc(NC(=O)c3ccc(C)c(Nc4nccc(-c5cccnc5)n4)c3)cc(C(F)(F)F)c2)cn1 [NILOTINIB],> 2 µM

# Tested on: FaDu;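 further: cell viability readout of growth inhibition in FaDu cells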
# Experiment: cells
# Format: functional, cell-based, Homo sapiens
# Details: Homo sapiens, FaDu
# Description: SANGER: Inhibition of human FADU cell growth in a cell viability assay.
row,Structure (SMILES),IC50
1,Cc1cn(-c2cc(NC(=O)c3ccc(C)c(Nc4nccc(-c5cccnc5)n4)c3)cc(C(F)(F)F)c2)cn1 [NILOTINIB],> 2 µM

# Tested on: J82;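 further: growth inhibition of J82 cells, read out with a cell viability assay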
# Experiment: cells
# Format: functional, cell-based, Homo sapiens
# Details: Homo sapiens, J82
# Description: SANGER: Inhibition of human J82 cell growth in a cell viability assay.
row,Structure (SMILES),IC50
1,Cc1cn(-c2cc(NC(=O)c3ccc(C)c(Nc4nccc(-c5cccnc5)n4)c3)cc(C(F)(F)F)c2)cn1 [NILOTINIB],> 2 µM

# Tested on: MKN-1;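 further: growth inhibition of human MKN1 cells, read out by a cell viability measurement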
# Experiment: cells
# Format: functional, cell-based, Homo sapiens
# Details: Homo sapiens, MKN-1
# Description: SANGER: Inhibition of human MKN1 cell growth in a cell viability assay.
row,Structure (SMILES),IC50
1,Cc1cn(-c2cc(NC(=O)c3ccc(C)c(Nc4nccc(-c5cccnc5)n4)c3)cc(C(F)(F)F)c2)cn1 [NILOTINIB],> 2 µM

# Tested on: SNU-387
# Experiment: cells
# Format: functional, cell-based, Homo sapiens
# Details: Homo sapiens, SNU-387
# Description: SANGER: Inhibition of human SNU-387 cell growth in a cell viability assay.
row,Structure (SMILES),IC50
1,Cc1cn(-c2cc(NC(=O)c3ccc(C)c(Nc4nccc(-c5cccnc5)n4)c3)cc(C(F)(F)F)c2)cn1 [NILOTINIB],> 2 µM

# Tested on: DK-MG;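 further: growth inhibition of DK-MG cells, read out with a cell viability assay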
# Experiment: cells
# Format: functional, cell-based, Homo sapiens
# Details: Homo sapiens, DK-MG
# Description: SANGER: Inhibition of human DK-MG cell growth in a cell viability assay.
row,Structure (SMILES),IC50
1,Cc1cn(-c2cc(NC(=O)c3ccc(C)c(Nc4nccc(-c5cccnc5)n4)c3)cc(C(F)(F)F)c2)cn1 [NILOTINIB],> 2 µM

# Tested on: A204;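 further: growth inhibition of human A204 cells, read out with a cell viability assay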
# Experiment: cells
# Format: functional, cell-based, Homo sapiens
# Details: Homo sapiens, A204
# Description: SANGER: Inhibition of human A204 cell growth in a cell viability assay.
row,Structure (SMILES),IC50
1,Cc1cn(-c2cc(NC(=O)c3ccc(C)c(Nc4nccc(-c5cccnc5)n4)c3)cc(C(F)(F)F)c2)cn1 [NILOTINIB],1.57 µM

# Tested on: H-EMC-SS
# Experiment: cells
# Format: functional, cell-based, Homo sapiens
# Details: Homo sapiens, H-EMC-SS
# Description: SANGER: Inhibition of human H-EMC-SS cell growth in a cell viability assay.
row,Structure (SMILES),IC50
1,Cc1cn(-c2cc(NC(=O)c3ccc(C)c(Nc4nccc(-c5cccnc5)n4)c3)cc(C(F)(F)F)c2)cn1 [NILOTINIB],> 2 µM

# Tested on: COLO-680N;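 further: cell viability assay used to measure inhibition of COLO-680N cell growth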
# Experiment: cells
# Format: functional, cell-based, Homo sapiens
# Details: Homo sapiens, COLO-680N
# Description: SANGER: Inhibition of human COLO-680N cell growth in a cell viability assay.
row,Structure (SMILES),IC50
1,Cc1cn(-c2cc(NC(=O)c3ccc(C)c(Nc4nccc(-c5cccnc5)n4)c3)cc(C(F)(F)F)c2)cn1 [NILOTINIB],> 2 µM

# Tested on: BT-20;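 further: cell viability assay measuring suppression of growth in human BT-20 cells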
# Experiment: cells
# Format: functional, cell-based, Homo sapiens
# Details: Homo sapiens, BT-20
# Description: SANGER: Inhibition of human BT-20 cell growth in a cell viability assay.
row,Structure (SMILES),IC50
1,Cc1cn(-c2cc(NC(=O)c3ccc(C)c(Nc4nccc(-c5cccnc5)n4)c3)cc(C(F)(F)F)c2)cn1 [NILOTINIB],> 2 µM

# Tested on: BHY;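 further: cell growth inhibition read out by a viability assay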
# Experiment: cells
# Format: functional, cell-based, Homo sapiens
# Details: Homo sapiens, BHY
# Description: SANGER: Inhibition of human BHY cell growth in a cell viability assay.
row,Structure (SMILES),IC50
1,Cc1cn(-c2cc(NC(=O)c3ccc(C)c(Nc4nccc(-c5cccnc5)n4)c3)cc(C(F)(F)F)c2)cn1 [NILOTINIB],> 2 µM

# Tested on: NCI-H2052;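 further: growth inhibition of NCI-H2052 cells, read out with a cell viability assay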
# Experiment: cells
# Format: functional, cell-based, Homo sapiens
# Details: Homo sapiens, NCI-H2052
# Description: SANGER: Inhibition of human NCI-H2052 cell growth in a cell viability assay.
row,Structure (SMILES),IC50
1,Cc1cn(-c2cc(NC(=O)c3ccc(C)c(Nc4nccc(-c5cccnc5)n4)c3)cc(C(F)(F)F)c2)cn1 [NILOTINIB],> 2 µM

# Tested on: NCI-H1563;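 further: growth inhibition of human NCI-H1563 cells, read out with a cell viability assay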
# Experiment: cells
# Format: functional, cell-based, Homo sapiens
# Details: Homo sapiens, NCI-H1563
# Description: SANGER: Inhibition of human NCI-H1563 cell growth in a cell viability assay.
row,Structure (SMILES),IC50
1,Cc1cn(-c2cc(NC(=O)c3ccc(C)c(Nc4nccc(-c5cccnc5)n4)c3)cc(C(F)(F)F)c2)cn1 [NILOTINIB],> 2 µM

# Tested on: NCI-H2029;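 further: Read-out is a viability assay on the cultured cells, and IC50 is the concentration that suppresses cell growth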
# Experiment: cells
# Format: functional, cell-based, Homo sapiens
# Details: Homo sapiens, NCI-H2029
# Description: SANGER: Inhibition of human NCI-H2029 cell growth in a cell viability assay.
row,Structure (SMILES),IC50
1,Cc1cn(-c2cc(NC(=O)c3ccc(C)c(Nc4nccc(-c5cccnc5)n4)c3)cc(C(F)(F)F)c2)cn1 [NILOTINIB],> 2 µM

# Tested on: SW837;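 further: growth inhibition of SW837 cells, determined with a cell viability assay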
# Experiment: cells
# Format: functional, cell-based, Homo sapiens
# Details: Homo sapiens, SW837
# Description: SANGER: Inhibition of human SW837 cell growth in a cell viability assay.
row,Structure (SMILES),IC50
1,Cc1cn(-c2cc(NC(=O)c3ccc(C)c(Nc4nccc(-c5cccnc5)n4)c3)cc(C(F)(F)F)c2)cn1 [NILOTINIB],> 2 µM

# Tested on: CP50-MEL-B;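 further: growth inhibition of the human cell line, measured with a cell viability read-out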
# Experiment: cells
# Format: functional, cell-based, Homo sapiens
# Details: Homo sapiens, CP50-MEL-B
# Description: SANGER: Inhibition of human CP50-MEL-B cell growth in a cell viability assay.
row,Structure (SMILES),IC50
1,Cc1cn(-c2cc(NC(=O)c3ccc(C)c(Nc4nccc(-c5cccnc5)n4)c3)cc(C(F)(F)F)c2)cn1 [NILOTINIB],> 2 µM

# Tested on: MHH-ES-1;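 further: cell growth inhibition measured by a cell viability assay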
# Experiment: cells
# Format: functional, cell-based, Homo sapiens
# Details: Homo sapiens, MHH-ES-1
# Description: SANGER: Inhibition of human MHH-ES-1 cell growth in a cell viability assay.
row,Structure (SMILES),IC50
1,Cc1cn(-c2cc(NC(=O)c3ccc(C)c(Nc4nccc(-c5cccnc5)n4)c3)cc(C(F)(F)F)c2)cn1 [NILOTINIB],> 2 µM
